Source: the supplement of paper PMC10307832

Tests used:
Experiment in all cases: relative viability (nuclei count vs DMSO), 5 days (fraction); higher = more cells survive
NCI-H2023 = test system: NCI-H2023
Method in brief: (§1)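 After 5 days of treatment, lung cancer cells in 1536-well plates were fixed and stained in a single step (final 0.05% Triton X-100, 1% formaldehyde, 1 ug/ml Hoechst) and their nuclei counted on 4× images. Treatment had been applied by pin tool the day after seeding as one drug alone or as a fixed anchor-drug dose with five library-drug doses (not always all listed) in √10 steps. Relative viability is the nuclei count of treated wells divided by that of vehicle wells, and values are medians of duplicate plates.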

201T = test system: 201T
Method in brief: as §1

NCI-H650 = test system: NCI-H650
Method in brief: as §1

HCC-15 = test system: HCC-15
Method in brief: as §1

ChaGo-K-1 = test system: ChaGo-K-1
Method in brief: as §1

NCI-H1734 = test system: NCI-H1734
Method in brief: as §1

HCC-44 = test system: HCC-44
Method in brief: as §1

SW 1573 = test system: SW 1573
Method in brief: as §1

NCI-H460 = test system: NCI-H460
Method in brief: as §1

NCI-H1993 = test system: NCI-H1993
Method in brief: as §1

NCI-H441 = test system: NCI-H441
Method in brief: as §1

LOU-NH91 = test system: LOU-NH91
Method in brief: as §1

LCLC-97TM1 = test system: LCLC-97TM1
Method in brief: as §1

LCLC-103H = test system: LCLC-103H
Method in brief: as §1

NCI-H1650 = test system: NCI-H1650
Method in brief: as §1

A-427 = test system: A-427
Method in brief: as §1

RERF-LC-KJ = test system: RERF-LC-KJ
Method in brief: as §1

COR-L23 = test system: COR-L23
Method in brief: as §1

HARA = test system: HARA
Method in brief: as §1

NCI-H2126 = test system: NCI-H2126
Method in brief: as §1

NCI-H2009 = test system: NCI-H2009
Method in brief: as §1

Question: Which relative viability (NCI-H2023; first compound 0.08 µM) does the source give for `O=c1[nH]c2ccccc2n1C1CCN(CCCC(c2ccc(F)cc2)c2ccc(F)cc2)CC1` [Pimozide] + CCNC(=O)c1noc(-c2cc(C(C)C)c(O)cc2O)c1-c1ccc(CN2CCOCC2)cc1 [Luminespib] (partner 0.01 µM) here?
Answer: 0.755

Question: And the relative viability (NCI-H2023; first compound 0.253 µM)?
Answer: 0.707

Question: And the relative viability (NCI-H2023; first compound 0.8 µM)?
Answer: 0.709

Question: And the relative viability (NCI-H2023; first compound 2.53 µM)?
Answer: 0.507

Question: And the relative viability (NCI-H2023; first compound 8 µM)?
Answer: 0.596

Question: And the relative viability (201T; first compound 0.08 µM)?
Answer: 1.05

Question: What about the relative viability (201T; first compound 0.253 µM) of the same molecule?
Answer: 1.02

Question: What about the relative viability (201T; first compound 0.8 µM) of the same molecule?
Answer: 0.971

Question: What about the relative viability (201T; first compound 2.53 µM) of the same molecule?
Answer: 0.961

Question: And the relative viability (201T; first compound 8 µM)?
Answer: 0.912

Question: And the relative viability (NCI-H650; first compound 0.08 µM)?
Answer: 0.765

Question: What about the relative viability (NCI-H650; first compound 0.253 µM) of the same molecule?
Answer: 0.76

Question: What about the relative viability (NCI-H650; first compound 0.8 µM) of the same molecule?
Answer: 0.838

Question: And the relative viability (NCI-H650; first compound 2.53 µM)?
Answer: 0.786

Question: What about the relative viability (NCI-H650; first compound 8 µM) of the same molecule?
Answer: 0.765

Question: What about the relative viability (HCC-15; first compound 0.08 µM) of the same molecule?
Answer: 0.308

Question: And the relative viability (HCC-15; first compound 0.253 µM)?
Answer: 0.288

Question: And the relative viability (HCC-15; first compound 0.8 µM)?
Answer: 0.257

Question: What about the relative viability (HCC-15; first compound 2.53 µM) of the same molecule?
Answer: 0.175

Question: What about the relative viability (HCC-15; first compound 8 µM) of the same molecule?
Answer: 0.308

Question: And the relative viability (ChaGo-K-1; first compound 0.08 µM)?
Answer: 0.48

Question: And the relative viability (ChaGo-K-1; first compound 0.253 µM)?
Answer: 0.472

Question: What about the relative viability (ChaGo-K-1; first compound 0.8 µM) of the same molecule?
Answer: 0.375

Question: And the relative viability (ChaGo-K-1; first compound 2.53 µM)?
Answer: 0.496

Question: And the relative viability (ChaGo-K-1; first compound 8 µM)?
Answer: 0.484

Question: And the relative viability (NCI-H1734; first compound 0.08 µM)?
Answer: 0.168

Question: And the relative viability (NCI-H1734; first compound 0.253 µM)?
Answer: 0.17

Question: And the relative viability (NCI-H1734; first compound 2.53 µM)?
Answer: 0.154

Question: And the relative viability (NCI-H1734; first compound 8 µM)?
Answer: 0.374

Question: And the relative viability (HCC-44; first compound 0.08 µM)?
Answer: 1.17

Question: And the relative viability (HCC-44; first compound 0.253 µM)?
Answer: 1.02

Question: What about the relative viability (HCC-44; first compound 0.8 µM) of the same molecule?
Answer: 0.953

Question: What about the relative viability (HCC-44; first compound 2.53 µM) of the same molecule?
Answer: 0.994

Question: And the relative viability (HCC-44; first compound 8 µM)?
Answer: 1.01

Question: What about the relative viability (SW 1573; first compound 0.08 µM) of the same molecule?
Answer: 0.214

Question: And the relative viability (SW 1573; first compound 0.253 µM)?
Answer: 0.301

Question: What about the relative viability (SW 1573; first compound 0.8 µM) of the same molecule?
Answer: 0.188

Question: And the relative viability (SW 1573; first compound 2.53 µM)?
Answer: 0.223

Question: What about the relative viability (SW 1573; first compound 8 µM) of the same molecule?
Answer: 0.198

Question: What about the relative viability (NCI-H460; first compound 0.08 µM) of the same molecule?
Answer: 0.0367

Question: And the relative viability (NCI-H460; first compound 0.253 µM)?
Answer: 0.0252

Question: And the relative viability (NCI-H460; first compound 0.8 µM)?
Answer: 0.0202

Question: What about the relative viability (NCI-H460; first compound 2.53 µM) of the same molecule?
Answer: 0.0243

Question: And the relative viability (NCI-H460; first compound 8 µM)?
Answer: 0.0256

Question: And the relative viability (NCI-H1993; first compound 0.08 µM)?
Answer: 0.729

Question: And the relative viability (NCI-H1993; first compound 0.253 µM)?
Answer: 0.809

Question: What about the relative viability (NCI-H1993; first compound 0.8 µM) of the same molecule?
Answer: 0.77

Question: What about the relative viability (NCI-H1993; first compound 2.53 µM) of the same molecule?
Answer: 0.79

Question: What about the relative viability (NCI-H1993; first compound 8 µM) of the same molecule?
Answer: 0.425

Question: What about the relative viability (NCI-H441; first compound 0.08 µM) of the same molecule?
Answer: 0.413

Question: And the relative viability (NCI-H441; first compound 0.253 µM)?
Answer: 0.404

Question: What about the relative viability (NCI-H441; first compound 0.8 µM) of the same molecule?
Answer: 0.332

Question: What about the relative viability (NCI-H441; first compound 2.53 µM) of the same molecule?
Answer: 0.311

Question: And the relative viability (NCI-H441; first compound 8 µM)?
Answer: 0.3

Question: What about the relative viability (LOU-NH91; first compound 0.08 µM) of the same molecule?
Answer: 0.377

Question: What about the relative viability (LOU-NH91; first compound 0.253 µM) of the same molecule?
Answer: 0.345

Question: What about the relative viability (LOU-NH91; first compound 0.8 µM) of the same molecule?
Answer: 0.399

Question: And the relative viability (LOU-NH91; first compound 2.53 µM)?
Answer: 0.359

Question: What about the relative viability (LOU-NH91; first compound 8 µM) of the same molecule?
Answer: 0.313

Question: What about the relative viability (LCLC-97TM1; first compound 0.08 µM) of the same molecule?
Answer: 0.89

Question: And the relative viability (LCLC-97TM1; first compound 0.253 µM)?
Answer: 0.689

Question: What about the relative viability (LCLC-97TM1; first compound 0.8 µM) of the same molecule?
Answer: 0.62

Question: And the relative viability (LCLC-97TM1; first compound 2.53 µM)?
Answer: 0.632

Question: And the relative viability (LCLC-97TM1; first compound 8 µM)?
Answer: 0.679

Question: And the relative viability (LCLC-103H; first compound 0.08 µM)?
Answer: 0.942

Question: And the relative viability (LCLC-103H; first compound 0.253 µM)?
Answer: 1.01

Question: What about the relative viability (LCLC-103H; first compound 0.8 µM) of the same molecule?
Answer: 0.762

Question: What about the relative viability (LCLC-103H; first compound 2.53 µM) of the same molecule?
Answer: 0.899

Question: And the relative viability (LCLC-103H; first compound 8 µM)?
Answer: 0.948

Question: What about the relative viability (NCI-H1650; first compound 0.08 µM) of the same molecule?
Answer: 0.206

Question: And the relative viability (NCI-H1650; first compound 0.253 µM)?
Answer: 0.204

Question: What about the relative viability (NCI-H1650; first compound 0.8 µM) of the same molecule?
Answer: 0.187

Question: What about the relative viability (NCI-H1650; first compound 2.53 µM) of the same molecule?
Answer: 0.187

Question: And the relative viability (NCI-H1650; first compound 8 µM)?
Answer: 0.199

Question: And the relative viability (A-427; first compound 0.08 µM)?
Answer: 0.703

Question: And the relative viability (A-427; first compound 0.253 µM)?
Answer: 0.793

Question: What about the relative viability (A-427; first compound 0.8 µM) of the same molecule?
Answer: 0.936

Question: And the relative viability (A-427; first compound 2.53 µM)?
Answer: 0.857

Question: What about the relative viability (A-427; first compound 8 µM) of the same molecule?
Answer: 0.768

Question: What about the relative viability (RERF-LC-KJ; first compound 0.08 µM) of the same molecule?
Answer: 1.09

Question: And the relative viability (RERF-LC-KJ; first compound 0.253 µM)?
Answer: 1.14

Question: And the relative viability (RERF-LC-KJ; first compound 0.8 µM)?
Answer: 1.08

Question: What about the relative viability (RERF-LC-KJ; first compound 2.53 µM) of the same molecule?
Answer: 1.12

Question: And the relative viability (RERF-LC-KJ; first compound 8 µM)?
Answer: 0.964

Question: What about the relative viability (COR-L23; first compound 0.08 µM) of the same molecule?
Answer: 0.603

Question: What about the relative viability (COR-L23; first compound 0.253 µM) of the same molecule?
Answer: 0.628

Question: What about the relative viability (COR-L23; first compound 0.8 µM) of the same molecule?
Answer: 0.594

Question: And the relative viability (COR-L23; first compound 2.53 µM)?
Answer: 0.61

Question: And the relative viability (COR-L23; first compound 8 µM)?
Answer: 0.707

Question: And the relative viability (HARA; first compound 0.253 µM)?
Answer: 0.949

Question: What about the relative viability (HARA; first compound 0.8 µM) of the same molecule?
Answer: 0.684

Question: And the relative viability (HARA; first compound 2.53 µM)?
Answer: 0.568

Question: What about the relative viability (HARA; first compound 8 µM) of the same molecule?
Answer: 0.795

Question: And the relative viability (NCI-H2126; first compound 0.08 µM)?
Answer: 0.901

Question: What about the relative viability (NCI-H2126; first compound 0.253 µM) of the same molecule?
Answer: 0.889

Question: And the relative viability (NCI-H2126; first compound 0.8 µM)?
Answer: 0.842

Question: What about the relative viability (NCI-H2126; first compound 2.53 µM) of the same molecule?
Answer: 0.877

Question: And the relative viability (NCI-H2126; first compound 8 µM)?
Answer: 0.839

Question: What about the relative viability (NCI-H2009; first compound 0.08 µM) of the same molecule?
Answer: 0.984

Question: And the relative viability (NCI-H2009; first compound 0.253 µM)?
Answer: 1.01

Question: And the relative viability (NCI-H2009; first compound 0.8 µM)?
Answer: 0.981

Question: What about the relative viability (NCI-H2009; first compound 2.53 µM) of the same molecule?
Answer: 1.05

Question: And the relative viability (NCI-H2009; first compound 8 µM)?
Answer: 0.842
